Results reported in paper PMC7395068, “The evolution of strategies to minimise the risk of human drug-induced liver injury (DILI) in drug discovery and development” (Archives of Toxicology, 2020).
Where two headings read alike, the source gives them in different places.

Key:
hLiMTs [1] = details: cited from earlier work
PHH = details: cited from earlier work
HepaRG spheroids = test: Combined HCI (HCS) and cellular ATP 3D assay in HepaRG spheroids; details: HepaRG; for AC50 / minimal effective concentration: Homo sapiens
hLiMTs [2] = test: Combined HCI (HCS) and cellular ATP 3D assay in hLiMTs; details: for AC50 / minimal effective concentration: Homo sapiens
[3] = test system: isolated mouse liver mitochondria; details: In vitro Assay; ref Porceddu 2012; cited from earlier work
[4] = cited from earlier work
[5] = test system: primary human hepatocytes, NIH3T3 fibroblasts, BSEP, CYP3A4; details: In vitro Assay; ref Schadt 2015; cited from earlier work
[6] = cited from earlier work; remark: listed apart in the source
human hepatocytes = details: In vitro Assay; ref Xu 2008; cited from earlier work
HepG2 cells [7] = details: In vitro Assay; ref Persson 2013; cited from earlier work
HepG2 cells [8] = details: cited from earlier work
[9] = test system: THLE or HepG2 cells, isolated mitochondria, BSEP; details: In vitro Assay; ref Aleo 2019; cited from earlier work
[10] = In vitro Assay, ref Proctor 2017
[11] = In vitro Assay, ref O'Brien 2006

NCCCC(O)(P(=O)(O)O)P(=O)(O)O [alendronate]
hLiMTs ATP <100uM (hLiMTs [1]; [10]): -VE
hLiMTs/100uM, Proctor (2017) (hLiMTs [1]; hLiMTs, ATP, IC50 threshold 100 µM, ref Proctor et al. 2017): -VE
PHH/100uM, Proctor (2017) (PHH; 2D PHH, ATP, IC50 threshold 100 µM, ref Proctor et al. 2017): -VE
PHH ATP <100uM (PHH; [10]): -VE
HepaRG <10 uM All (HepaRG spheroids; all endpoints, cut-off <10 uM): +ve (<10 uM)
AC50 (HepaRG spheroids; read-out: ATP endpoint AC50): 0.822 µM
minimal effective concentration (HepaRG spheroids; read-out: ATP endpoint MEC): 0.291 µM
AC50 (HepaRG spheroids; read-out: HCS endpoint AC50): 3.13 µM
minimal effective concentration (HepaRG spheroids; read-out: HCS endpoint MEC): 0.58 µM
AC50 (hLiMTs [2]; read-out: ATP endpoint AC50): 7.71 µM
minimal effective concentration (hLiMTs [2]; read-out: ATP endpoint MEC): 2.86 µM
AC50 (hLiMTs [2]; read-out: HCS endpoint AC50): 15.6 µM
minimal effective concentration (hLiMTs [2]; read-out: HCS endpoint MEC): 2.24 µM
hLiMTs <10 uM All (hLiMTs [2]; hLiMTs, all endpoints, cut-off <10 uM): +ve (<10 uM)

CC(C)c1c(C(=O)Nc2ccccc2)c(-c2ccccc2)c(-c2ccc(F)cc2)n1CC[C@@H](O)C[C@@H](O)CC(=O)O [atorvastatin]
in vitro data EC20<=2uM [3]: +VE
hLiMTs ATP <100uM (hLiMTs [1]; [10]): +VE (IC50 threshold of 100 µM)
PHH ATP <100uM (PHH; [10]): -VE

C[C@]12CC[C@@H]3c4ccc(O)cc4CC[C@H]3[C@@H]1CC[C@@H]2O [beta-estradiol]
in vitro data EC2<=1x Cmax [3]: -VE
in vitro data EC20<=2uM [3]: -VE
hLiMTs ATP <100uM (hLiMTs [1]; [10]): +VE (IC50 threshold of 100 µM)
PHH ATP <100uM (PHH; [10]): -VE

[H]/N=C(/N)c1ccc(NCc2nc3cc(C(=O)N(CCC(=O)O)c4ccccn4)ccc3n2C)cc1 [dabigatran]
In vivo DILI ([4]; ref Proctor 2017): -VE
In vivo DILI ([4]; ref Schadt 2015): -VE
Cellular toxicity (3T3 cells) [5]: -VE
Combined Assay [5]: -VE
GSH adduct HML [5]: -VE
Hepatocyte cellular toxicity [5]: +VE
MitoTox 3T3 [5]: -VE
TDI CYP3A4 [5]: -VE
hBSEP inhibition [5]: +VE
hLiMTs ATP <100uM (hLiMTs [1]; [10]): -VE
PHH ATP <100uM (PHH; [10]): -VE

CCN1C(=O)NC(c2ccccc2)C1=O (centres unmarked) [ethotion]
hLiMTs ATP <100uM (hLiMTs [1]): -VE
PHH ATP <100uM (PHH): -VE

CCOC(=O)C1=C(C)NC(C)=C(C(=O)OC)C1c1cccc(Cl)c1Cl (centres unmarked) [felodipine]
DILI +VE (5-8), DILI -VE (-4) ([6]; in vivo): +VE
DILI severity category ([6]; in vivo): vLess-DILI-Concern
In vivo DILI ([4]; in vivo): -VE
hLiMTs ATP <100uM (hLiMTs [1]): -VE
PHH ATP <100uM (PHH): -VE

CCC1=C(C)CN(C(=O)NCCc2ccc(S(=O)(=O)NC(=O)N[C@H]3CC[C@H](C)CC3)cc2)C1=O [glimepiride]
DILI +VE (5-8), DILI -VE (-4) ([6]; ref Chen 2016): +VE
DILI severity category ([6]; ref Chen 2016): vLess-DILI-Concern
In vivo DILI ([4]; ref Aleo 2019): +VE
In vivo DILI ([4]; ref O'Brien 2006): -VE
In vivo DILI ([4]; ref Persson 2013): -VE
In vivo DILI ([4]; ref Porceddu 2012): +VE
In vivo DILI ([4]; ref Xu 2008): -VE
Structural based (HCI) (human hepatocytes): -VE
Cluser analysis (HepG2 cells [7]): -VE
Structural based (HCI) (HepG2 cells [7]): -VE
in vitro data EC2<=1x Cmax [3]: -VE
in vitro data EC20<=2uM [3]: +VE
Structural based (HCI) (HepG2 cells [8]; [11]): -VE
Partition Hybrid HRM Score [9]: -VE
Ro2 Hybrid HRM Score [9]: -VE

C[N+](C)(C)C[C@H](O)CC(=O)[O-] [levocarnitine]
In vivo DILI ([4]; ref Proctor 2017): -VE
hLiMTs ATP <100uM (hLiMTs [1]; [10]): -VE
PHH ATP <100uM (PHH; [10]): -VE

Cc1cnc(NC(=O)C2=C(O)c3ccccc3S(=O)(=O)N2C)s1 [meloxicam]
DILI +VE (5-8), DILI -VE (-4) ([6]; in vivo): +VE
DILI severity category ([6]; in vivo): vLess-DILI-Concern
Cellular toxicity (3T3 cells) [5]: -VE
Combined Assay [5]: -VE
GSH adduct HML [5]: -VE
Hepatocyte cellular toxicity [5]: -VE
MitoTox 3T3 [5]: -VE
TDI CYP3A4 [5]: -VE
hBSEP inhibition [5]: -VE
hLiMTs ATP <100uM (hLiMTs [1]): -VE
PHH ATP <100uM (PHH): -VE

CO[C@@]12[C@H](COC(N)=O)C3=C(C(=O)C(C)=C(N)C3=O)N1C[C@@H]1N[C@@H]12 [mitomycin]
PHH ATP <100uM (PHH): +VE (key: +VE: IC50 threshold of 100 µM)

CC(C)(C)NC[C@H](O)COc1ccccc1C1CCCC1 [penbutolol]
DILI +VE (5-8), DILI -VE (-4) ([6]; ref Chen 2016): -VE
DILI severity category ([6]; ref Chen 2016): vNo-DILI-Concern
In vivo DILI ([4]; ref Aleo 2019): -VE
In vivo DILI ([4]; ref Proctor 2017): -VE
In vivo DILI ([4]; ref Schadt 2015): -VE
Cellular toxicity (3T3 cells) [5]: -VE
Combined Assay [5]: -VE
GSH adduct HML [5]: -VE
Hepatocyte cellular toxicity [5]: -VE
MitoTox 3T3 [5]: -VE
TDI CYP3A4 [5]: -VE
hBSEP inhibition [5]: -VE
hLiMTs ATP <100uM (hLiMTs [1]; [10]): +VE (IC50 threshold of 100 µM)
PHH ATP <100uM (PHH; [10]): +VE (IC50 threshold of 100 µM)
Partition Hybrid HRM Score [9]: -VE
Ro2 Hybrid HRM Score [9]: -VE

[H]/N=C(/N)N/C(=N/[H])NCCc1ccccc1 [phenformin]
In vivo DILI ([4]; ref O'Brien 2006): -VE
In vivo DILI ([4]; ref Proctor 2017): +VE
hLiMTs ATP <100uM (hLiMTs [1]; [10]): +VE (IC50 threshold of 100 µM)
PHH ATP <100uM (PHH; [10]): +VE (IC50 threshold of 100 µM)
Structural based (HCI) (HepG2 cells [8]; [11]): +VE (lowest HCI endpoint IC50 (or in the absence of dose–response < 100 µM) < 30 × total human plasma exposure levels (Cmax.tot))

OC(CCN1CCCC1)(c1ccccc1)C1CCCCC1 (centres unmarked) [procyclidine]
DILI +VE (5-8), DILI -VE (-4) ([6]; in vivo): -VE
DILI severity category ([6]; in vivo): vNo-DILI-Concern
In vivo DILI ([4]; in vivo): -VE
hLiMTs ATP <100uM (hLiMTs [1]): -VE
PHH ATP <100uM (PHH): +VE (key: +VE: IC50 threshold of 100 µM)

CCN(CC)CCCC(C)Nc1c2ccc(Cl)cc2nc2ccc(OC)cc12 (centres unmarked) [quinacrine]
In vivo DILI ([4]; in vivo): +VE
hLiMTs ATP <100uM (hLiMTs [1]): +VE (key: +VE: IC50 threshold of 100 µM)
PHH ATP <100uM (PHH): +VE (key: +VE: IC50 threshold of 100 µM)
Structural based (HCI) (HepG2 cells [8]): +VE (key: +VE: lowest HCI endpoint IC50 (or in the absence of dose–response < 100 µM) < 30 × total human plasma exposure levels (Cmax.tot))

CC(C)c1nc(N(C)S(C)(=O)=O)nc(-c2ccc(F)cc2)c1/C=C/[C@@H](O)C[C@@H](O)CC(=O)O [rosuvastatin]
DILI +VE (5-8), DILI -VE (-4) ([6]; ref Chen 2016): +VE
DILI severity category ([6]; ref Chen 2016): vLess-DILI-Concern
In vivo DILI ([4]; ref O'Brien 2006): +VE
In vivo DILI ([4]; ref Proctor 2017): +VE
hLiMTs ATP <100uM (hLiMTs [1]; [10]): +VE (IC50 threshold of 100 µM)
PHH ATP <100uM (PHH; [10]): +VE (IC50 threshold of 100 µM)
Structural based (HCI) (HepG2 cells [8]; [11]): +VE (lowest HCI endpoint IC50 (or in the absence of dose–response < 100 µM) < 30 × total human plasma exposure levels (Cmax.tot))

CN[C@@H]1[C@H](O)[C@H](NC)[C@H]2O[C@@]3(O)C(=O)C[C@@H](C)O[C@H]3O[C@@H]2[C@H]1O [spectinomycin]
DILI +VE (5-8), DILI -VE (-4) ([6]; ref Chen 2016): -VE
DILI severity category ([6]; ref Chen 2016): Ambiguous DILI-concern
In vivo DILI ([4]; ref Porceddu 2012): +VE
In vivo DILI ([4]; ref Proctor 2017): +VE
in vitro data EC2<=1x Cmax [3]: +VE
in vitro data EC20<=2uM [3]: +VE
hLiMTs ATP <100uM (hLiMTs [1]; [10]): -VE
PHH ATP <100uM (PHH; [10]): -VE

Cn1c(=O)c2[nH]cnc2n(C)c1=O [theophylline]
Cellular toxicity (3T3 cells) [5]: -VE
Combined Assay [5]: -VE
GSH adduct HML [5]: -VE
Hepatocyte cellular toxicity [5]: -VE
MitoTox 3T3 [5]: -VE
TDI CYP3A4 [5]: -VE
hBSEP inhibition [5]: -VE
hLiMTs ATP <100uM (hLiMTs [1]): -VE
PHH ATP <100uM (PHH): -VE

CC1=C(/C=C/C(C)=C/C=C/C(C)=C/C(=O)O)C(C)(C)CCC1 [tretinoin]
DILI +VE (5-8), DILI -VE (-4) ([6]; ref Chen 2016): -VE
DILI severity category ([6]; ref Chen 2016): Ambiguous DILI-concern
In vivo DILI ([4]; ref Proctor 2017): +VE
hLiMTs ATP <100uM (hLiMTs [1]; [10]): +VE (IC50 threshold of 100 µM)
PHH ATP <100uM (PHH; [10]): -VE
